According to ChEMBL document CHEMBL5625206, “Design, synthesis, and evaluation of novel pleuromutilin aryl acrylate derivatives as promising broad-spectrum antibiotics especially for combatting multi-drug resistant gram-negative bacteria” (Eur J Med Chem, 2023):
Converted amounts (≈) assume the structure as drawn. The source made the active and inactive calls. No cut-off for these calls is given here.

Columns and labels:
Staphylococcus aureus [1] = test: Antibacterial activity against Staphylococcus aureus ATCC 29213 assessed as bacterial growth inhibition incubated for 24 hrs by CLSI based broth microdilution method; type: functional
[2] = tested on: Mycoplasmoides gallisepticum; test: Anti-mycoplasma activity against Mycoplasma gallisepticum MG-R-NCTC10115 assessed as bacterial growth inhibition incubated for 7 days; type: functional; conditions: MG-R-NCTC10115, 168 h, time 7 day
[3] = Cytotoxicity against HEK293 cells incubated for 24 hrs by CCK8 assay; type: toxicity, cell-based; conditions: human
Escherichia coli [4] = test: Inhibition of biofilm formation of Escherichia coli ATCC 25922 at MIC incubated for 24 hrs by crystal violet staining based analysis relative to control; type: functional
Staphylococcus aureus [5] = test: Induction of cell damage in methicillin-resistant Staphylococcus aureus ATCC 33591 assessed as decrease in intracellular ATP concentration at MIC incubated for 30 mins by fluorescence based analysis relative to control; type: functional; set-up: scale not given: the % may be the effect or the level left; conditions: 0.5 h
Escherichia coli [6] = test: Induction of cell damage in Escherichia coli ATCC 25922 assessed as fold increase in extracellular ATP concentration at MIC incubated for 30 mins by fluorescence based analysis relative to control; type: functional; conditions: 0.5 h
Staphylococcus aureus [7] = test: Induction of cell damage in methicillin-resistant Staphylococcus aureus ATCC 33591 assessed as intracellular pH at MIC incubated for 30 mins by fluorescence based analysis (reference value: 6.34 +/- 0.10); type: functional; conditions: 0.5 h
Staphylococcus aureus [8] = test: Induction of cell damage in methicillin-resistant Staphylococcus aureus ATCC 33591 assessed as intracellular pH at 2 times MIC incubated for 30 mins by fluorescence based analysis (reference value: 6.34 +/- 0.10); type: functional; conditions: 0.5 h
Escherichia coli [9] = test: Induction of extracellular electrical conductivity in Escherichia coli ATCC 25922 at MIC incubated for 6 hrs; type: functional, organism-based
Escherichia coli [10] = test: Induction of extracellular electrical conductivity in Escherichia coli ATCC 25922 at 2 times MIC incubated for 8 hrs relative to control; type: functional
Escherichia coli [11] = test: Disruption of cell membrane integrity in Escherichia coli ATCC 25922 assessed as increase in red fluorescence at 1 to 4 times MIC incubated for 2 hrs by MycoLight green JJ98/PI staining based analysis; type: functional, organism-based
Escherichia coli [12] = test: Disruption of cell membrane integrity in Escherichia coli ATCC 25922 assessed as appearance of pores on cell membrane at 4 times MIC incubated for 4 hrs by FESEM analysis; type: functional, organism-based
Staphylococcus aureus [13] = test: Antibacterial activity against methicillin-resistant Staphylococcus aureus ATCC 33591 infected in neutropenic Kunming mouse model administered intraperitoneally measured after 7 days; type: functional; conditions: ATCC 33591, 168 h, route ip, time 7 day
[14] = Cmax in fasted Sprague-Dawley rat at 1 mg/kg, iv by LC-MS/MS analysis; type: ADME, organism-based; conditions: in vivo
[15] = MRT in fasted Sprague-Dawley rat at 1 mg/kg, iv by LC-MS/MS analysis; type: ADME, organism-based; conditions: in vivo
[16] = Volume of distribution at steady state in fasted Sprague-Dawley rat at 1 mg/kg, iv by LC-MS/MS analysis; type: ADME, organism-based; conditions: in vivo, read-out: Vdss
[17] = Toxicity in fasted Sprague-Dawley rat assessed as mortality rate at 148 mg/kg, IG measured for 14 days; type: organism-based; conditions: in vivo, po, time 14 day
[18] = Toxicity in fasted female Sprague-Dawley rat assessed as body weight at 224 mg/kg, IG measured on same day (reference value: 165.2 +/- 8.1 g); type: organism-based; conditions: in vivo, po
[19] = Toxicity in fasted male Sprague-Dawley rat assessed as body weight at 500 mg/kg, IG measured on same day (reference value: 212.7 +/- 13.2 g); type: organism-based; conditions: in vivo, po
[20] = Toxicity in fasted male Sprague-Dawley rat assessed as body weight at 148 mg/kg, IG measured after 7 days (reference value: 260.5 +/- 12.7 g); type: organism-based; conditions: in vivo, po, 168 h, time 7 day
[21] = Toxicity in fasted female Sprague-Dawley rat assessed as body weight at 148 mg/kg, IG measured after 7 days (reference value: 188.2 +/- 9.2 g); type: organism-based; conditions: in vivo, po, 168 h, time 7 day
[22] = Toxicity in fasted male Sprague-Dawley rat assessed as body weight at 224 mg/kg, IG measured after 7 days (reference value: 260.5 +/- 12.7 g); type: organism-based; conditions: in vivo, po, 168 h, time 7 day
[23] = Toxicity in fasted female Sprague-Dawley rat assessed as body weight at 500 mg/kg, IG measured after 7 days (reference value: 188.2 +/- 9.2 g); type: organism-based; conditions: in vivo, po, 168 h, time 7 day
[24] = Toxicity in fasted male Sprague-Dawley rat assessed as body weight at 100 mg/kg, IG measured after 14 days (reference value: 311.2 +/- 13.6 g); type: organism-based; conditions: in vivo, po, 336 h, time 14 day
[25] = Toxicity in fasted female Sprague-Dawley rat assessed as body weight at 100 mg/kg, IG measured after 14 days (reference value: 214.3 +/- 9.8 g); type: organism-based; conditions: in vivo, po, 336 h, time 14 day
[26] = Toxicity in fasted male Sprague-Dawley rat assessed as body weight at 500 mg/kg, IG measured after 14 days (reference value: 311.2 +/- 13.6 g); type: organism-based; conditions: in vivo, po, 336 h, time 14 day
[27] = Toxicity in fasted female Sprague-Dawley rat assessed as body weight at 500 mg/kg, IG measured after 14 days (reference value: 214.3 +/- 9.8 g); type: organism-based; conditions: in vivo, po, 336 h, time 14 day
[28] = Toxicity in fasted female Sprague-Dawley rat assessed as animal growth rate at 148 mg/kg, IG measured for 14 days (reference value: 29.85 +/- 4.97 g); type: organism-based; conditions: in vivo, po, 336 h, time 14 day
[29] = Toxicity in fasted female Sprague-Dawley rat assessed as animal growth rate at 224 mg/kg, IG measured for 14 days (reference value: 29.85 +/- 4.97 g); type: organism-based; conditions: in vivo, po, 336 h, time 14 day
[30] = Toxicity in fasted female Sprague-Dawley rat assessed as animal growth rate at 500 mg/kg, IG measured for 14 days (reference value: 29.85 +/- 4.97 g); type: organism-based; conditions: in vivo, po, 336 h, time 14 day
[31] = Toxicity in fasted male Sprague-Dawley rat assessed as relative kidney weight ratio at 224 mg/kg, IG measured for 14 days (reference value: 0.820 +/- 0.072); type: organism-based; conditions: in vivo, po, 336 h, time 14 day
[32] = Toxicity in fasted male Sprague-Dawley rat assessed as relative kidney weight ratio at 331 mg/kg, IG measured for 14 days (reference value: 0.820 +/- 0.072); type: organism-based; conditions: in vivo, po, 336 h, time 14 day
[33] = Toxicity in fasted female Sprague-Dawley rat assessed as relative heart weight ratio at 224 mg/kg, IG measured for 14 days (reference value: 0.429 +/- 0.016); type: organism-based; conditions: in vivo, po, 336 h, time 14 day
[34] = Toxicity in fasted female Sprague-Dawley rat assessed as relative heart weight ratio at 500 mg/kg, IG measured for 14 days (reference value: 0.429 +/- 0.016); type: organism-based; conditions: in vivo, po, 336 h, time 14 day
[35] = Toxicity in fasted male Sprague-Dawley rat assessed as relative lung weight ratio at 500 mg/kg, IG measured for 14 days (reference value: 0.437 +/- 0.064); type: organism-based; conditions: in vivo, po, 336 h, time 14 day
[36] = Toxicity in fasted male Sprague-Dawley rat assessed as relative spleen weight ratio at 148 mg/kg, IG measured for 14 days (reference value: 0.246 +/- 0.037); type: organism-based; conditions: in vivo, po, 336 h, time 14 day
[37] = Toxicity in fasted female Sprague-Dawley rat assessed as relative spleen weight ratio at 224 mg/kg, IG measured for 14 days (reference value: 0.223 +/- 0.019); type: organism-based; conditions: in vivo, po, 336 h, time 14 day

## C=C[C@]1(C)C[C@@H](OC(=O)COC(=O)/C=C/c2ccc(N(C)C)cc2)[C@]2(C)[C@H](C)CC[C@]3(CCC(=O)[C@H]32)[C@@H](C)[C@@H]1O
Staphylococcus aureus [1]
  MIC: 2 µg/mL (≈ 3.63 µM)
[2]
  MIC: 0.004 µg/mL (≈ 0.00725 µM)
[3]
  CC50 at 24 h: 34.6 µM
Escherichia coli [4]
  inhibition (INH): 58.1%
Staphylococcus aureus [5]
  Activity: 57.98%
Escherichia coli [6]
  fold change (FC): 6.12
Staphylococcus aureus [7]
  pH: 4.27
Staphylococcus aureus [8]
  pH: 2.75
Escherichia coli [9]
  Activity: Active
Escherichia coli [10]
  Activity: 20.78%
Escherichia coli [11]
  Activity: Active
Escherichia coli [12]
  Activity: Active
Staphylococcus aureus [13]
  ED50: 9.04 mg/kg
[14]
  Cmax: 9570 ng/mL
[15]
  MRT: 42.6 min
[16]
  Vd: 2 L/kg
[17]
  mortality at 336 h: 0%
[18]
  Activity: 168.5 g
[19]
  Activity: 208 g
[20]
  Activity: 256.8 g
[21]
  Activity: 181.4 g
[22]
  Activity: 257.1 g
[23]
  Activity: 181.3 g
[24]
  Activity: 314.5 g
[25]
  Activity: 214.6 g
[26]
  Activity: 296.8 g
[27]
  Activity: 207.7 g
[28]
  Activity: 31.79%
[29]
  Activity: 28.96%
[30]
  Activity: 30.22%
[31]
  Ratio: 0.808
[32]
  Ratio: 0.831
[33]
  Ratio: 0.453
[34]
  Ratio: 0.449
[35]
  Ratio: 0.399
[36]
  Ratio: 0.227
[37]
  Ratio: 0.249
